The text below walks through data of publication doi:10.1101/2024.08.13.607785v1 (biorxiv, 2024).

Parameters in all cases: species or system mixed lysate of K562, MV4-11, THP-1, NCI-H1155
The target in assay [1] is Ephrin type-A receptor 5 ; EPHA5 ; P54756 (Homo sapiens, UniProt P54756). The note with it: DDA-MS residual binding; binder.
Assay [2] concerns the target T1, Ephrin type-B receptor 2 ; EPHB2 ; P29323 (Homo sapiens, UniProt P29323).
T1 sequence (P29323 1-1055): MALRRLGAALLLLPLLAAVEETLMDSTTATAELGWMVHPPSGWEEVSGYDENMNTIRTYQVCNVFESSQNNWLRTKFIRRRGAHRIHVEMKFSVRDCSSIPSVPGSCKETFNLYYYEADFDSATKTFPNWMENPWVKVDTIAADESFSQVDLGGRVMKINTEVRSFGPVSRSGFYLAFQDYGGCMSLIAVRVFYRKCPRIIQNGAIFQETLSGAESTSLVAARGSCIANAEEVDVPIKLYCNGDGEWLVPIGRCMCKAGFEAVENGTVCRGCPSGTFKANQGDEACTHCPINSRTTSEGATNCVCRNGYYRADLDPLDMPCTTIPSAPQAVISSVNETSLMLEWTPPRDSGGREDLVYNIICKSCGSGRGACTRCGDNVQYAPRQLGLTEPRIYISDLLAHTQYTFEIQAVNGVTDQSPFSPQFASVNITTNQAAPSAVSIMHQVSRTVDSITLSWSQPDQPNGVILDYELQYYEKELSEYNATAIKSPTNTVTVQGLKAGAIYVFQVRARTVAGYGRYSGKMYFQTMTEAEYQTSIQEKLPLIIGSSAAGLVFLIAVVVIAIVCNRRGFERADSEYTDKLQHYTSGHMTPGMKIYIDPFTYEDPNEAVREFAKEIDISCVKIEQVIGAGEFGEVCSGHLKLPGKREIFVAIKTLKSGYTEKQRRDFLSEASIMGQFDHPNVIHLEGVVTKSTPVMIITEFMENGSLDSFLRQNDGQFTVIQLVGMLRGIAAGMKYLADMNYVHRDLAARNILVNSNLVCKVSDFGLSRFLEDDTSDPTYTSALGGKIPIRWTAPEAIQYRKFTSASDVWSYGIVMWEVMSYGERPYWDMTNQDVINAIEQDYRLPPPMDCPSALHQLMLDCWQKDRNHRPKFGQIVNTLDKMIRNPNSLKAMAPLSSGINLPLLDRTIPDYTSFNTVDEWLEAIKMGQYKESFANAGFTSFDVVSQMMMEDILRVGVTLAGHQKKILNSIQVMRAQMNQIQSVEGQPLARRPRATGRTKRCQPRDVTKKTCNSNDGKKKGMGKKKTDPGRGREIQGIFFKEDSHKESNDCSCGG
The note with it: DDA-MS residual binding; binder.

For assay [3], the target named is LIM domain kinase 2 ; LIMK2 ; P53671 (Homo sapiens, UniProt P53671). To be noted: DDA-MS residual binding; binder.
Assay [4] has as its target Mitogen-activated protein kinase kinase kinase 4 ; MAP3K4 ; Q9Y6R4 (Homo sapiens, UniProt Q9Y6R4). To be noted: binder.
The target in assay [5] is Phosphatidylinositol 4-kinase alpha ; PI4KA ; P42356 (Homo sapiens, UniProt P42356). The note with it: DDA-MS residual binding; binder.
For assay [6], the target named is Receptor-interacting serine/threonine-protein kinase 2 ; RIPK2 ; O43353 (Homo sapiens, UniProt O43353). To be noted: DDA-MS residual binding; binder.
Assay [7] deals with Serine/threonine-protein kinase LMTK2 ; LMTK2 ; Q8IWU2 (Homo sapiens, UniProt Q8IWU2). The note with it: DDA-MS residual binding; binder.
Assay [8] deals with Tyrosine-protein kinase CSK ; CSK ; P41240 (Homo sapiens, UniProt P41240). To be noted: binder.
Assay [9] deals with Tyrosine-protein kinase Fgr ; FGR ; P09769 (Homo sapiens, UniProt P09769). The note with it: binder.
The target in assay [10] is Tyrosine-protein kinase Fyn ; FYN ; P06241 (Homo sapiens, UniProt P06241). To be noted: DDA-MS residual binding; binder.
Assay [11] concerns the target T2, Dual specificity mitogen-activated protein kinase kinase 3 ; MAP2K3 ; P46734 (Homo sapiens, UniProt P46734).
T2 sequence (P46734 1-347): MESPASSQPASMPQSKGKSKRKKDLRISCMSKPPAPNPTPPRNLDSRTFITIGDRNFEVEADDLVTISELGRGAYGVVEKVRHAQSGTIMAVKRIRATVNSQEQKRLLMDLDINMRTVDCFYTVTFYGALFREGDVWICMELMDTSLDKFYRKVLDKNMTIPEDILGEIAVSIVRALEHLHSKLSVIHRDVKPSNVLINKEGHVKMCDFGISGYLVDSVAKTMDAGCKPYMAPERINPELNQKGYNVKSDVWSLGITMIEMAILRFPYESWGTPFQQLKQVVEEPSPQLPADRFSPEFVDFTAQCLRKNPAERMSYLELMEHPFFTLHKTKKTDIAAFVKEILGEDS
To be noted: DIA-MS residual binding; binder.

SMILES strings stand for the structures.

Phosphatidylinositol 4-kinase alpha ; PI4KA ; P42356, sequence (P42356 whole entry): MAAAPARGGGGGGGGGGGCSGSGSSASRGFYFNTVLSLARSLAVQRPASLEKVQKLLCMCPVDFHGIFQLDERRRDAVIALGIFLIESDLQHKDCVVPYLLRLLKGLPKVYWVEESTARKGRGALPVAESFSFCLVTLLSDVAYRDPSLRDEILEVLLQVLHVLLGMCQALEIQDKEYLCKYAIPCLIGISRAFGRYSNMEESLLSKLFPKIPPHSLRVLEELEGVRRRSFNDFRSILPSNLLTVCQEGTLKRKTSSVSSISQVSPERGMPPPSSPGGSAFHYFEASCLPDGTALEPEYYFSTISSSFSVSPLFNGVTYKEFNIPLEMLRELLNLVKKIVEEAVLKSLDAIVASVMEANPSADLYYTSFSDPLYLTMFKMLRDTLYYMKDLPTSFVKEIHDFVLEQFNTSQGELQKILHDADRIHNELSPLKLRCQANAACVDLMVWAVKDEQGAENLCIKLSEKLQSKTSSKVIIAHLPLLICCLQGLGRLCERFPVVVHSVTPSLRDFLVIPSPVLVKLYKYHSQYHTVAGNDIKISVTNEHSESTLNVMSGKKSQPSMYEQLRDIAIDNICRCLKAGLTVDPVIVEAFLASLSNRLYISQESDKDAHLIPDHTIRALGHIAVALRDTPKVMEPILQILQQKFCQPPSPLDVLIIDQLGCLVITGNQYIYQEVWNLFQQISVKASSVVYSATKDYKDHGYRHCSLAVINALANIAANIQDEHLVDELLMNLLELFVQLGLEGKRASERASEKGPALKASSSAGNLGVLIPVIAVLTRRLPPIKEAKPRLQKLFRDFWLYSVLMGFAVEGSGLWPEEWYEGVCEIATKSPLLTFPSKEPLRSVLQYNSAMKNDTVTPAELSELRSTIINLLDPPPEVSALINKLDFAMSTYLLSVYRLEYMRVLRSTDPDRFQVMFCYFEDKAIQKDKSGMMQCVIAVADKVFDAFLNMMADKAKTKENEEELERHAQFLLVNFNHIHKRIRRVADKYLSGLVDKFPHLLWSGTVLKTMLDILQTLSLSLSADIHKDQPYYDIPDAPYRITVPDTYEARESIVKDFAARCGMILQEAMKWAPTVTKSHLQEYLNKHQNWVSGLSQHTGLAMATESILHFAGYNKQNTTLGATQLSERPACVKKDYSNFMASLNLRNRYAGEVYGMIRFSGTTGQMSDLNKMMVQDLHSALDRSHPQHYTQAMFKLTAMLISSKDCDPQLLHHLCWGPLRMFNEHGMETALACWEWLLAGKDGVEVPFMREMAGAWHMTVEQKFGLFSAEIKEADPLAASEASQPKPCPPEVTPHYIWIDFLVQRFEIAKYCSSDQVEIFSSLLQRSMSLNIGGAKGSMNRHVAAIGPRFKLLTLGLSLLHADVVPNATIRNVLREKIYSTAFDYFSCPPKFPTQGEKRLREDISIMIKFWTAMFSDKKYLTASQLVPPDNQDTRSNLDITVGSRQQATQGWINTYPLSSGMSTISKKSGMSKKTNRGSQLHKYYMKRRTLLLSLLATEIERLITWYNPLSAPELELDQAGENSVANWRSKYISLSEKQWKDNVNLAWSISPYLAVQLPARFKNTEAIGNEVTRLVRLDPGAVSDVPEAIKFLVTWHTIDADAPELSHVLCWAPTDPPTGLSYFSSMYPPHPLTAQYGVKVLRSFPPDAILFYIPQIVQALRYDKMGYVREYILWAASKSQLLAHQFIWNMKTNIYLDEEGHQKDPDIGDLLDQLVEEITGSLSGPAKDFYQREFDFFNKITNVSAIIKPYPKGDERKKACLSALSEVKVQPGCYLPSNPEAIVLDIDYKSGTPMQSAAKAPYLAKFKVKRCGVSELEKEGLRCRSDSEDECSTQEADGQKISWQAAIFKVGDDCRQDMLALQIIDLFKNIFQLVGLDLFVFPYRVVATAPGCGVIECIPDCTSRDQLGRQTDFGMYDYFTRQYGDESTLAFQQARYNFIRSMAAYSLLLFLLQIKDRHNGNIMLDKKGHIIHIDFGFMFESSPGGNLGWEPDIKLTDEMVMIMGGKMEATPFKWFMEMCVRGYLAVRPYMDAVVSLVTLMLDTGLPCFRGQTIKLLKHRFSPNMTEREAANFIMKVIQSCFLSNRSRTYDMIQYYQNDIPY
Tyrosine-protein kinase Fgr ; FGR ; P09769, sequence (P09769 whole entry): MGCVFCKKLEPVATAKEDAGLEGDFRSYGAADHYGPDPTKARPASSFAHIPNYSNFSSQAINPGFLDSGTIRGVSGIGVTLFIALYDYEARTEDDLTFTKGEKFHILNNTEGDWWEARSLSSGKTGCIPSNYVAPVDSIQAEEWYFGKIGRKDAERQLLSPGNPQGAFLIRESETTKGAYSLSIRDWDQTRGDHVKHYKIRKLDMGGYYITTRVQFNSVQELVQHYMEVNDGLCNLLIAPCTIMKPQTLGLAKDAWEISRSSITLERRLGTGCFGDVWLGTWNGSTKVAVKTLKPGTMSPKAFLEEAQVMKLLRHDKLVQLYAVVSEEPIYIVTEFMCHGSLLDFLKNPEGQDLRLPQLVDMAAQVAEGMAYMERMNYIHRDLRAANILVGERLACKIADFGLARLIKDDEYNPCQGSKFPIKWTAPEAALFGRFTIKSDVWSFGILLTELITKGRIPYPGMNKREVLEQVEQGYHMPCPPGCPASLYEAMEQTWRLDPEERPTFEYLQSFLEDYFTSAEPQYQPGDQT
LIM domain kinase 2 ; LIMK2 ; P53671, sequence (P53671 whole entry, the tested form may be a part): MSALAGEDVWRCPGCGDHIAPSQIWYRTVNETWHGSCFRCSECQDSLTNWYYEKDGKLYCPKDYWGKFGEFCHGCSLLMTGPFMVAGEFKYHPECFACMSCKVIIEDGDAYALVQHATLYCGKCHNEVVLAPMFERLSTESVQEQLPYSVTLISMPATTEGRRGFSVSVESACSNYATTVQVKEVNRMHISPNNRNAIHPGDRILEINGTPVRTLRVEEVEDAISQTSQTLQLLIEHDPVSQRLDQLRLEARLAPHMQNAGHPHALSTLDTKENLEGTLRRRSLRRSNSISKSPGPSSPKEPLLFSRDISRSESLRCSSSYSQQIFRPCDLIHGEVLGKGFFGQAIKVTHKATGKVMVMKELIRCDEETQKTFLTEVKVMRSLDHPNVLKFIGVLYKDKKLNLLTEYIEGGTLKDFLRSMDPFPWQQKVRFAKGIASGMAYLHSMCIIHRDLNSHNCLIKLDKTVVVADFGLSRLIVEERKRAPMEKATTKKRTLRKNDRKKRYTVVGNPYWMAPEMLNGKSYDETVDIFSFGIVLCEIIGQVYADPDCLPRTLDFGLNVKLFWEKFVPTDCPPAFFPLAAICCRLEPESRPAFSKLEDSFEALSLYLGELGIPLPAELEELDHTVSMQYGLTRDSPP
Ephrin type-A receptor 5 ; EPHA5 ; P54756, sequence (P54756 whole entry): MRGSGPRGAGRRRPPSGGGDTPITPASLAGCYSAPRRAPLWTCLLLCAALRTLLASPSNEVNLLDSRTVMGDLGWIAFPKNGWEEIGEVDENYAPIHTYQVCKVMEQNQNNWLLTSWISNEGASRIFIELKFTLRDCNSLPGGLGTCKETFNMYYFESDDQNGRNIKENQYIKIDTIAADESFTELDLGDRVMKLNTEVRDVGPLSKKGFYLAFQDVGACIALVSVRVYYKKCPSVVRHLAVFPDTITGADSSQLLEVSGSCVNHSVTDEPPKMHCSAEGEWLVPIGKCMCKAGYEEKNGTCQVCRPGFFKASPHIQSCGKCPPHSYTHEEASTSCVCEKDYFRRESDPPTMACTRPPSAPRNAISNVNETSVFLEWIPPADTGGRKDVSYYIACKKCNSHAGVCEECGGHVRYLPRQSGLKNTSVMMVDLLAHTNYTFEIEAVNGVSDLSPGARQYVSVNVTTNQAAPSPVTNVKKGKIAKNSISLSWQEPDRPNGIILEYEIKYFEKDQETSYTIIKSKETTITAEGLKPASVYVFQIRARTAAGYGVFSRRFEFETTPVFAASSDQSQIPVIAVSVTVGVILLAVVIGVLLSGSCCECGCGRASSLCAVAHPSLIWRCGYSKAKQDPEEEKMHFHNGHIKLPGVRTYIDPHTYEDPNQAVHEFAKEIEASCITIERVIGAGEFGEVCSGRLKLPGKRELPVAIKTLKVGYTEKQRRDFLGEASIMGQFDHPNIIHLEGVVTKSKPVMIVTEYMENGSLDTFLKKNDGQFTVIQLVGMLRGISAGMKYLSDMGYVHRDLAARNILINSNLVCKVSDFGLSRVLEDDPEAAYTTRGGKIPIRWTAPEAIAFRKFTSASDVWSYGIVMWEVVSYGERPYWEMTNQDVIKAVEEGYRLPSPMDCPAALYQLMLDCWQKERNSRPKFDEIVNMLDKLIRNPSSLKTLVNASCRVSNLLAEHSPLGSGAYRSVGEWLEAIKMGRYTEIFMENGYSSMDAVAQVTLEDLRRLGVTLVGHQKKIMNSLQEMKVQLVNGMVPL
Tyrosine-protein kinase Fyn ; FYN ; P06241, sequence (P06241 whole entry): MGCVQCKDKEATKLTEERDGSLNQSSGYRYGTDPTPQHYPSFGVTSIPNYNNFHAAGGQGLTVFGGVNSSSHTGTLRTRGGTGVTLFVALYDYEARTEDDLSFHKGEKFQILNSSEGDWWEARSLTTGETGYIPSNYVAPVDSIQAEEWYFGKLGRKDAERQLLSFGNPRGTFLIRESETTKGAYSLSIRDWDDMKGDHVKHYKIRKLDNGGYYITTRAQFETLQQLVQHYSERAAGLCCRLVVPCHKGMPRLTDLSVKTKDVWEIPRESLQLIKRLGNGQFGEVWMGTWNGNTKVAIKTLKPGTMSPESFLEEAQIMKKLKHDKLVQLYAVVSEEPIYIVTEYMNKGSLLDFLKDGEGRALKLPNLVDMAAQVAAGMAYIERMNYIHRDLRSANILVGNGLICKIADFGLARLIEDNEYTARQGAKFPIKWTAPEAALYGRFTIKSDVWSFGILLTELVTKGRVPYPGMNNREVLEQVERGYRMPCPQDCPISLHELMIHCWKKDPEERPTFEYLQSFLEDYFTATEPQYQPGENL

With `Cc1nc(Nc2ncc(C(=O)Nc3c(C)cccc3Cl)s2)cc(N2CCN(CCO)CC2)n1` [dasatinib], the “DDA-MS / % Intensity (30 µM/DMSO)” value came to 2.68% in assay [1]; 7.218% in assay [2]; 7.37% in assay [3]; 9.795% in [4]; 10.66% in [5]; 1.02% in assay [6]. Besides, the “DDA-MS / % Intensity (30 µM/DMSO)” value in [7] amounted to 9.69%; in assay [8], 0.3688%; in [9] it was 3.884%; in assay [10], 1.698%. Also, the “DIA-MS / % Intensity (30 µM/DMSO)” value in assay [11] is 55.82%.
